No end group written: not given here.
Experiments:
Assay type in all cases: cell-based, human
PBL [1] = assay: ELISA of cytokine secretion by PBL stimulated once with peptide-pulsed DC
Method: (§1) Human PBMC were separated from buffy coat samples of naive donors using Ficoll UNI-SEPmaxi tube. Separated cells were suspended in RPMI medium supplemented with 10% FCS, L-Glutamine, Sodium Pyruvate, MEM-EAGLE non-essential amino-acids, HEPES and Gentamycin Sulphate (Bet-Haemek Industries, IL) and cultivated for 4 h at 37° C. in a culture dish (Corning 150 mm×25 mm). Adherent cells were collected and cultured for 7 days in serum free DCCM-1 medium supplemented with L-Glutamine, huIL-4 (1000 IU/ml) (Cytolab IL) and GM-CSF-80 ug/ml (Cytolab IL). On day seven floating cells were collected and loaded with 50 ug/ml of examined peptide for 18 h at 37° C.
(§2) Cytokine release was studied during the culture of stimulated T-cells. The evaluated samples were collected from the T cell culture medium on day 2, 3, and 5 and stored until use at −20° C.
(§3) […] of the selected capture antibody (e.g. anti-Hu IFN-Gamma, or anti-Hu TNF-alfa or anti IL-2) were added to each well at the final concentration of 5 μg/ml in PBS. Plates were incubated for 2 h at R.T. or over night at 4° C. Next, […] of blocking solution were added for an incubation of 2 h at R.T. […] of evaluated samples were added in duplicate into 2 wells for 2 hours at RT. After 2 h of incubation at R.T plates were washed λ4 times in washing solution. In the next step, a Biotin-conjugated detection antibody (relevant to coated antibody) was added at a final concentration of 10 μg/ml in total volume of 100 μl for 1 h at R.T. Finally, 100 μl/well working dilution (1:10000 in Blocker solution) of Streptavidin-HRP were added to each well and incubated for 1 h at R.T.
(§4) Plates were washed λ6 times with PBS-Tween (0.4%) and 100 μl/well of TMB/E Solution (CHEMICON, Catalog #ES001) was added. The plates were then exposed until blue color appeared in the wells of the positive control and no color was detected in the blank wells. To stop the color reaction, 50 μl/well of 10% of Sulfuric acid was added. The plates were counted in ELISA-Reader using a 450 nm filter.

PBMC = assay: Proliferation, direct presentation of peptide via PBMC (monocytes)
Method: (§5) Proliferation analysis was conducted in three different methods. In all three methods, plates were cultured for 3-5 days under visual control and then 0.5 […]Cu/well of 3[H] (Amersham) was added for additional culture of to 18 h at 37° C. In the last step, plates were harvested and the radioactive counts were measured in a □ counter. • 1. DC indirect presentation: In the first method, 100 µl of 2×10^6 thawed PBL were placed in U-shape Bottom 96 well plate (Nunc) with RPMI medium supplemented with 5% H AB serum, L-Glutamine, Sodium Pyruvate, MEM-EAGLE non-essential amino-acids, HEPES and Gentamycin. At the next stage 100 µl of 25×10^4 peptide-pulsed DC were added to each three wells of PBL and underwent proliferation analysis as described above. • 2. PBL direct presentation: In the 2nd method, 100 µl of 2×10^6 PBL were placed in Flat Bottom 96 well plates (Corning) and stimulated with different concentrations (0.05 ug/ml-2 ug/ml) of peptides. In the next step the cells underwent proliferation analysis as described above. • 3. PBMC direct presentation: In third method PNMC were used under similar conditions as described for the second method.
b. Direct presentation of the peptides via PBMC i.e. monocytes
(§6) Five experiments were performed according to the protocol described in material and methods with buffy-coat enriched PBLs obtained from six different naive donors (obtained from the Israeli blood bank).

[2] = system: ImMucin specific T-cell subpopulation; assay: Proliferation of the ImMucin-specific T-cell subpopulation after three stimulations; conditions: one out of two experiments, four donors
Excerpt: (§7) Thawed PBLs underwent 1st stimulation with ImMucin pulsed Autologues DC at a ratio of 20:1 and cultured for 7 days in dedicated T cell Medium. T cell medium contained RPMI medium supplemented with 10% FCS, L-Glutamine, Sodium Pyruvate, MEM-EAGLE non-essential amino-acids, HEPES and Gentamycin Sulphate (Bet-Haemek Industries, IL) as well as with 50 IU/ml of recombinant IL-7 (Cytolab IL). For the second stimulation, PBL were transferred to adherent autologues ImMucin-pulsed PBMC and cultured for additional 5 days in T cell Medium. At the end of the 5 days, medium was partial replaced with fresh medium containing 1 ug/ml of ImMucin and 50 IU/ml IL-2 for a third stimulation of 48 h at 37° C. Following the last stimulation ImMucin T cell line was checked for immune activation properties.
as §5
(§8) For that purpose, an enriched ImMucin-specific T cell subpopulation was produced via repeated stimulation with ImMucin. The specificity of the subpopulation for ImMucin, as well as to the other VXL epitopes, was examined using proliferation assays, cytokine release assays, FACS analysis in which the percentage and type of cells enriched during the enrichment process was analyzed, and using a CTL assay against selected target cells.
(§9) For producing the specific T cell subpopulation PBL were stimulated three times for 7, 5 and 2 days with ImMucin presented via DC and PBMC. Following the 3rd stimulation the cells were evaluated against the different VXL epitopes.

PBL [3] = assay: Proliferation of PBL, DC indirect presentation (peptide-pulsed autologous DC)
Method: as §1, §5
In the first set of experiments, the 21mer ImMucin, its different 9mer epitopes and other control epitopes (Table 3) were evaluated in proliferation assays with the aim of finding their optimal mode of presentation, stimulated dose as well as their peak of activity (time wise).
To evaluate the most efficient method for priming of PBLs with the different peptides, the following methods were compared:
a. In-direct presentation of the peptide via Autologues-pulsed DC
as §6

PBL [4] = assay: Proliferation of PBL, direct presentation of peptide without APC
Method: In all three methods, plates were cultured for 3-5 days under visual control and then 0.5 □Cu/well of 3[H] (Amersham) was added for additional culture of to 18 h at 37° C. […] DC indirect presentation: In the first method, 100 µl of 2×10^6 thawed PBL were placed in U-shape Bottom 96 well plate (Nunc) with RPMI medium supplemented with 5% H AB serum, L-Glutamine, Sodium Pyruvate, MEM-EAGLE non-essential amino-acids, HEPES and Gentamycin. At the next stage 100 µl of 25×10^4 peptide-pulsed DC were added to each three wells of PBL and underwent proliferation analysis as described above. • 2. PBL direct presentation: In the 2nd method, 100 µl of 2×10^6 PBL were placed in Flat Bottom 96 well plates (Corning) and stimulated with different concentrations (0.05 ug/ml-2 ug/ml) of peptides. In the next step the cells underwent proliferation analysis as described above. • 3. PBMC direct presentation: In third method PNMC were used under similar conditions as described for the second method.
Direct presentation of peptides to PBL without any APC

[5] = system: ImMucin specific enriched T-cell clone; assay: ELISA of cytokine secretion during development of the ImMucin-specific T cell subpopulation by repeated stimulation (FIG. 1)
Excerpt: as §7, §2, §3, §4, §9

[6] = system: T-Cell specific subpopulation (Clones); assay: ELISA of cytokine secretion by the T-cell specific subpopulation (clones) stimulated with peptides; conditions: two experiments, four donors
Excerpt: as §7, §2, §3, §4, §8, §9

[7] = peptide DC ratio 16:1, one out of five experiments, six donors
[8] = peptide pulsed DC ratio 16:1, one out of two experiments, two donors (Table 12)
[9] = optimal dose required for PBL activation, average of 5 experiments, six donors
[10] = visual inspection daily during 5 days, average of 5 experiments
[11] = after the second and third stimulations with ImMucin

MTPGTQSPFFLLLLLTVLTVV [ImMucin]
IL-2 (PBL [1]; [7]): 3.62 ng/mL
TNF-Alfa (PBL [1]; [7]): 11.6 ng/mL
IFN-gamma (PBL [1]; [8]): 0.5 ng/mL
TNF-Alfa (PBL [1]; [8]): 11.6 ng/mL
PBL Index of stimulation (SI) via PBMC (PBMC; naive donors, representative of 5 experiments): 2
Optimal dose via PBMC (PBMC; [9]): 0.05 to 1 µg/mL
Peak of Proliferation (Hours) via PBMC (PBMC; [10]): 120 h
IS (Average) [2]: 3.2
IS (Range) [2]: 2.2-4.2
PBL Index of stimulation (SI) via DC (PBL [3]; naive donors, CPM sample / CPM control, representative of 5 experiments): 4
IS (SI of the peptides as indicated in Table 7) (PBL [3]; one out of five experiments, six donors): 4
Optimal dose via DC (PBL [3]; [9]): 12.5-25 × × 10e6/well
IS (as indicated in Table 12) (PBL [3]; two donors): 2.8
Peak of Proliferation (Hours) via DC (PBL [3]; visual inspection by light microscopy daily during 5 days, average of 5 experiments): 96 h
PBL Index of stimulation (SI) Direct no APC (PBL [4]; average of two healthy donors (Table 11)): 0
Optimal dose Direct no APC (PBL [4]; [9]): No Influence
Peak of Proliferation (Hours) Direct no APC (PBL [4]; [10]): No proliferation
TNF-Alfa secretion ([5]; after the 3rd stimulation on day 14): completely disappeared
IL-2 secretion from CD4+ T cells [5, 11]: increased dramatically
INF-gamma secretion mainly from CD8+ T cells [5, 11]: increased dramatically
TNF-Alfa secretion, peak ([5]; during the first stimulation with ImMucin (FIG. 1)): 5 ng/mL
TNF-Alfa secretion ([5]; following a second stimulation with ImMucin): decreased
IL-2 % of clones [6]: 83%
INF-gamma % of clones [6]: 90%
TNF-Alfa % of clones [6]: 90%
TNF-Alfa Range [6]: 2.7 to 8.9 ng/mL
